# From US20100166848A1, “LIPOSOMAL FORMULATIONS FOR TREATING CANCER” (priority 2007, published 2010)
# Tests used:
# [1] = tested on: SW620 human colon carcinoma cell line; assay: Antiproliferative MTT assay, 24 h exposure plus 48 h drug-free; format: cell-based; conditions: SW-620, SW620, 24 h exposure + 48 h drug-free medium, n=3, read-out: IC50 (5-FU concentration inhibiting 50% of cell growth)
# Protocol: (§1) All experiments were carried out in the 5-FU-resistant, human colon carcinoma cell line SW620 (a.k.a CCL227) which overexpresses TS. Cells were maintained in RPMI supplemented with 10% fetal calf serum, […] and 1% kanamycin in a humidified CO2 incubator at 37° C. All experiments were performed in exponentially growing cells.
# Cells were seeded at a density of 8×10^4 cells/well in 96-well plates. […] Next, drug was removed and the cells were allowed to grow in fresh medium for an additional 48 h. After 72 h of discontinuous exposure, cell viability was evaluated using the classic colorimetric MTT assay (Alley et al, 1988). The IC50 was defined as the 5-FU concentration inhibiting 50% of cell growth.
# [2] = tested on: SW620 cells; assay: 5-FU tumoral metabolism study with tritiated 5-FU; format: cell-based, human; conditions: SW620, 1 μM tritiated 5-FU, 3-6 h observation period
# Protocol: as §1
# Exponentially growing cells were exposed to 1 μM of tritiated 5-FU alone, combined with free d-Ino or as a liposomal preparation [5-FU+d-Ino]-L. After 3, 4 and 6 h exposure, cells were harvested, lysed into 70% methanol and cytosols were isolated by centrifugation (15000 rpm, 30 min) and stored at −80° C. until analysis. Separation of 5-FU and its main metabolites was achieved using a HP1090 HPLC system (Agilent, France) coupled to a Flo-One radioactive detector (Packard, France) and equipped with an RP18 column (Agilent, France), followed by elution with a K2HPO4-TBAN:Methanol gradient as described previously (Ciccolini et al, 2000b).
# [3] = tested on: 5-FU-resistant SW620 human colorectal cell line; assay: MTT testing of triple liposomal formulation, 72 continuous exposure; format: cell-based; conditions: SW-620
# Text: Cell sensitivity was estimated by calculating the respective IC50 of the different regimen (MTT testing, 72 continuous exposure).
# [4] = tested on: colorectal cancer; conditions: monotherapy; cited from earlier work
# [5] = tested on: SW620 tumor; assay: In vivo efficacy, SW620 mouse xenograft model
# Protocol: Four-week old, female Swiss, nude mice (n=5 per group, Charles River, Lyon, France) were subcutaneously inoculated with 1×10^6 SW620 cells on the right flank. […] Drugs were administered intraperitoneously on a 3×/week basis for three consecutive weeks (e.g., D1/D2/D3, D8/D9/D10 and D16/D17/D18). Tumor size was measured three times a week in three dimensions using Vernier calipers, and tumor weight (mg) was calculated using the following standard formula: mass=pi/6XlengthXwidthXheight (Waterhouse et al, 2005). Preliminary experiments performed with empty liposomes were conducted to confirm the absence of any in vivo antiproliferative activity. Animal weight was monitored as a marker of toxicity. Animals were euthanized whenever a 25% loss of initial weight was observed, or when tumors reached 2500 mg.
compound,measurement,setting,value
"O=c1[nH]cc(F)c(=O)[nH]1 [5-FU, 5-fluorouracil]",IC50,[1],77 ± 6 µM
same,anti-TS FdUMP synthesis,[2],83 dpm/mg protein
same,IC50,[3],62 µM
same,response rate,[4],20%
same,tumor size reduction at the conclusion of the study,"[5]; 5-FU 50 mg/kg, d-Ino 120 mg/kg IP, 3x/week for three weeks",28%
same,"effect on tumor growth, in words",[5]; as compared with untreated animals,failed to reduce tumor growth
same,survival time,[5]; controls 16 days,20 days
same,increase in survival time compared to controls,"[5]; mouse, in vivo",25%
